According to patent US20080038333A1, “Formulations For Poorly Soluble Drugs” (Bio-Dar Ltd., priority 2004, published 2008):

Experiment: Solvent evaporation of nanoemulsion, crystal formation (electron microscopy)
Type: physicochemical
Conditions: evaporation performed after the beads formation, FIG. 4
Protocol: The organic solvent (toluene) was evaporated with Rotavapor (R-114 BUCHI) from the emulsion to form a dispersion of lipophilic drug in water. The organic solvent evaporation was performed in four steps, water was added up to the initial weight after each step.

With CCC(C)(C)C(=O)O[C@H]1C[C@@H](C)C=C2C=C[C@H](C)[C@H](CC[C@@H]3C[C@@H](O)CC(=O)O3)[C@H]21 [simvastatine] the “drug particle state after solvent evaporation” value was “remain as nanoparticles”.
